Assay results published in patent publication US11203591B2, “Substituted 6-azabenzimidazole compounds” (Gilead Sciences, Inc., priority 2018, dated 2021).

What follows are compounds tested against human HPK1 (MAP4K1) (Homo sapiens (Human), UniProt Q92918) (assay: HPK1 IC50 Assay (TR-FRET peptide phosphorylation)). Settings: 0.15 nM HPK1, 10 μM ATP, 1 μM STK S1 peptide substrate; geometric mean.
Type: biochemical
Procedure, shortened: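 Pre-activated, dually phosphorylated baculovirus-expressed HPK1 kinase domain (0.15 nM) preincubated 15 min with compound, then reacted 3 h at 25° C with 10 μM ATP and 1 μM STK S1 peptide in BES pH 7.0 buffer. Phosphopeptide read by TR-FRET (665/620 nm); four-parameter fit, geometric-mean IC50.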

Chain of human HPK1 (MAP4K1) (Q92918 17-274): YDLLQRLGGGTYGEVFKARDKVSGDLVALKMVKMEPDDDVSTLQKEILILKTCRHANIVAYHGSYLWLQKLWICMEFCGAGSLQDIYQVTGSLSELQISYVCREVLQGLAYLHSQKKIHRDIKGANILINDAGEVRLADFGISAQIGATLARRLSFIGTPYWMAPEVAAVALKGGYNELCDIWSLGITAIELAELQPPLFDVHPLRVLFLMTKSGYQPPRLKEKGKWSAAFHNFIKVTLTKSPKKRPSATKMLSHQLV

Row | IC50 | SMILES
1 | 100 pM | CCNC(=O)c1cc(Nc2nc(-c3cc4c(nc3F)C(C)(C)C(=O)N4[C@H]3C[C@@](C)(N4CCCC5(CC5)C4)C3)cc3ncn(C(C)C)c23)c(F)c(F)c1C [Example 279, N-ethyl-3,4-difluoro-5-((6-(5-fluoro-3,3-dimethyl-1-((1s,3s)-3-methyl-3-(5-azaspiro[2.5]octan-5-yl)cyclobutyl)-2-oxo-2,3-dihydro-1H-pyrrolo[3,2-b]pyridin-6-yl)-3-isopropyl-3H-imidazo[4,5-c]pyridin-4-yl)amino)-2-methylbenzamide]
2 | 100 pM | CC(C)n1cnc2cc(-c3cnc4c(c3)N([C@H]3C[C@@](C)(N5CCCC6(CC6)C5)C3)C(=O)C4(C)C)nc(Nc3cc(C(=O)NCC(F)F)c(Cl)c(F)c3F)c21 [Example 282, 2-chloro-N-(2,2-difluoroethyl)-5-((6-(3,3-dimethyl-1-((1s,3s)-3-methyl-3-(5-azaspiro[2.5]octan-5-yl)cyclobutyl)-2-oxo-2,3-dihydro-1H-pyrrolo[3,2-b]pyridin-6-yl)-3-isopropyl-3H-imidazo[4,5-c]pyridin-4-yl)amino)-3,4-difluorobenzamide]
3 | 40 pM | CC(C)n1cnc2cc(-c3cnc4c(c3)N([C@H]3C[C@@](C)(N5CCCCC5)C3)C(=O)C4(C)C)nc(Nc3cc(C(=O)NCC(F)F)c(F)c(F)c3F)c21 [Example 274, N-(2,2-difluoroethyl)-5-((6-(3,3-dimethyl-1-((1s,3s)-3-methyl-3-(piperidin-1-yl)cyclobutyl)-2-oxo-2,3-dihydro-1H-pyrrolo[3,2-b]pyridin-6-yl)-3-isopropyl-3H-imidazo[4,5-c]pyridin-4-yl)amino)-2,3,4-trifluorobenzamide]
4 | 60 pM | Cc1cc(F)c(Nc2nc(-c3ccc4c(c3)N([C@H]3C[C@@](C)(N5CCCCC5)C3)C(=O)C4(C)C)cc3ncn(C(C)C)c23)cc1C(=O)NCC(F)F [Example 266, N-(2,2-difluoroethyl)-5-((6-(3,3-dimethyl-1-((1s,3s)-3-methyl-3-(piperidin-1-yl)cyclobutyl)-2-oxoindolin-6-yl)-3-isopropyl-3H-imidazo[4,5-c]pyridin-4-yl)amino)-4-fluoro-2-methylbenzamide]
5 | 60 pM | CCNC(=O)c1cc(Nc2nc(-c3ccc4c(c3)N([C@H]3C[C@@](C)(N5CCCCC5)C3)C(=O)C4(C)C)cc3ncn(C(C)C)c23)c(F)cc1C [Example 276, 5-((6-(3,3-dimethyl-1-((1s,3s)-3-methyl-3-(piperidin-1-yl)cyclobutyl)-2-oxoindolin-6-yl)-3-isopropyl-3H-imidazo[4,5-c]pyridin-4-yl)amino)-N-ethyl-4-fluoro-2-methylbenzamide]

Row | SMILES | IC50
6 | CCNC(=O)c1cc(Nc2nc(-c3cnc4c(c3)N([C@H]3C[C@@](C)(N5CCCCC5)C3)C(=O)C4(C)C)cc3ncn(C(C)C)c23)c(F)c(F)c1F [Example 278, 5-((6-(3,3-dimethyl-1-((1s,3s)-3-methyl-3-(piperidin-1-yl)cyclobutyl)-2-oxo-2,3-dihydro-1H-pyrrolo[3,2-b]pyridin-6-yl)-3-isopropyl-3H-imidazo[4,5-c]pyridin-4-yl)amino)-N-ethyl-2,3,4-trifluorobenzamide] | 200 pM

Same assay, conditions: recombinant HPK1 kinase domain 0.15 nM, 10 μM ATP, 1 μM STK S1 peptide; geometric mean of multiple experiments

Row | SMILES | IC50
7 | CNC(=O)c1cc(Nc2nc(-c3ccc4c(c3)N([C@H]3C[C@@H](N5CCCCC5)C3)C(=O)C43CCN(C(C)=O)CC3)cc3ncn(C4CC4)c23)ccc1C [Example 58a] | 100 pM
8 | Cc1ccc(Nc2nc(-c3ccc4c(c3)N([C@H]3C[C@@H](N5CCCCC5)C3)C(=O)C4(C)C)cc3ncn(C(C)C)c23)cc1C(=O)NC1CC1 [Example 26] | 100 pM
9 | Cc1ccc(Nc2nc(-c3ccc4c(c3)N([C@H]3C[C@@H](N5CCCCC5)C3)C(=O)C4(C)C)cc3ncn(C(C)C)c23)cc1C(=O)N[C@H](C)C(F)F [Example 21B, N-(1,1-difluoropropan-2-yl)-5-((6-(3,3-dimethyl-2-oxo-1-((1s,3s)-3-(piperidin-1-yl)cyclobutyl)indolin-6-yl)-3-isopropyl-3H-imidazo[4,5-c]pyridin-4-yl)amino)-2-methylbenzamide] | 70 pM
10 | CC(=O)N1CCC2(CC1)C(=O)N([C@H]1C[C@@H](N3CCCCC3)C1)c1cc(-c3cc4ncn(C(C)C)c4c(Nc4ccc(C)c(C(=O)NCCO)c4)n3)ccc12 [Example 132] | 100 pM
11 | Cc1cc(F)c(Nc2nc(-c3ccc4c(c3)N([C@H]3C[C@@H](N5CCCCC5)C3)C(=O)C43CCN(C(=O)C(C)(C)O)CC3)cc3ncn(C(C)C)c23)cc1C(=O)NC(C)C [Example 55] | 200 pM
12 | CNC(=O)c1cc(Nc2nc(-c3ccc4c(c3)N([C@H]3C[C@@H](N5CCCC(C(F)F)C5)C3)C(=O)C4(C)C)cc3ncn(C(C)C)c23)ccc1C (stereo partly shown) [Example 105, 5-((6-(1-((1s,3s)-3-(3-(difluoromethyl)piperidin-1-yl)cyclobutyl)-3,3-dimethyl-2-oxoindolin-6-yl)-3-isopropyl-3H-imidazo[4,5-c]pyridin-4-yl)amino)-N,2-dimethylbenzamide] | 200 pM
13 | CC(=O)N1CCC2(CC1)C(=O)N([C@H]1C[C@@H](N3CCCCC3)C1)c1cc(-c3cc4ncn(C(C)C)c4c(Nc4ccc(C)c(C(=O)NC(C)C)c4)n3)ccc12 [Example 83, 5-((6-(1′-acetyl-2-oxo-1-((1s,3s)-3-(piperidin-1-yl)cyclobutyl)spiro[indoline-3,4′-piperidin]-6-yl)-3-isopropyl-3H-imidazo[4,5-c]pyridin-4-yl)amino)-N-isopropyl-2-methylbenzamide] | 100 pM
14 | Cc1cc(F)c(Nc2nc(-c3ccc4c(c3)N([C@H]3C[C@@H](N5CCC[C@@H](F)C5)C3)C(=O)C43CCN(C4COC4)CC3)cc3ncn(C(C)C)c23)cc1C(=O)NC(C)C [Example 172] | 300 pM
15 | CCNC(=O)c1cc(Nc2nc(-c3ccc4c(c3)N([C@H]3C[C@@H](N5CCCCC5)C3)C(=O)C43CCN(C(C)=O)CC3)cc3ncn(C(C)C)c23)ccc1C [Example 130] | 100 pM
16 | CC(C)n1cnc2cc(-c3cnc4c(c3)N(C3CC(C)(N5CCC6C[C@@H]6C5)C3)C(=O)C4(C)C)nc(Nc3cc(C(=O)NC4(CF)CC4)c(Cl)c(F)c3F)c21 (stereo partly shown) [Example 258, 5-((6-(1-((1s,3s)-3-(3-azabicyclo[4.1.0]heptan-3-yl)-3-methylcyclobutyl)-3,3-dimethyl-2-oxo-2,3-dihydro-1H-pyrrolo[3,2-b]pyridin-6-yl)-3-isopropyl-3H-imidazo[4,5-c]pyridin-4-yl)amino)-2-chloro-3,4-difluoro-N-(1-(fluoromethyl)cyclopropyl)benzamide] | 90 pM
17 | CC(=O)N1CCC2(CC1)C(=O)N([C@H]1C[C@@H](N3CCCCC3)C1)c1cc(-c3cc4ncn(C(C)C)c4c(Nc4cc(C(=O)NC(C)C)c(C)cc4F)n3)ccc12 [Example 129] | 200 pM
18 | CNC(=O)c1cc(Nc2nc(-c3ccc4c(c3)N([C@H]3C[C@@H](N5CCCCC5)C3)C(=O)C43CCN(C(C)=O)CC3)cc3ncn(C4CC4)c23)c(F)cc1Cl [Example 93] | 200 pM
19 | CNC(=O)c1cc(Nc2nc(-c3ccc4c(c3)N([C@H]3C[C@@H](N5CC[C@@H](F)C5)C3)C(=O)C4(C)C)cc3ncn(C(C)C)c23)ccc1C [Example 4] | 100 pM

The next lines start with the values.

Row | IC50 | SMILES
20 | 100 pM | CNC(=O)c1cc(Nc2nc(-c3ccc4c(c3)N([C@H]3C[C@@H](N5CCCCC5)C3)C(=O)C43CCN(S(=O)(=O)C4CC4)CC3)cc3ncn(C4CC4)c23)ccc1C [Example 167]
21 | 400 pM | CNC(=O)c1cc(Nc2nc(-c3ccc4c(c3)N([C@H]3C[C@@H](N5CCCCC5)C3)C(=O)C43CN(C(C)=O)C3)cc3ncn(C(C)C)c23)c(F)cc1C [Example 177]
22 | 200 pM | CC[C@H](C)n1cnc2cc(-c3ccc4c(c3)N([C@H]3C[C@@H](N5CCC6(C5)CC6(F)F)C3)C(=O)C43CCN(C(C)=O)CC3)nc(Nc3ccc(C)c(C(=O)NC)c3)c21 (stereo partly shown) [Example 158]
23 | 100 pM | CCNC(=O)c1cc(Nc2nc(-c3ccc4c(c3)N([C@H]3C[C@@H](N5CCCCC5)C3)C(=O)C4(C)C)cc3ncn(C(C)C)c23)ccc1C [Example 138]
24 | 60 pM | CNC(=O)c1cc(Nc2nc(-c3ccc4c(c3)N([C@H]3C[C@@H](N5CCCCC5)C3)C(=O)C43CCN(C(=O)C45CC(F)(C4)C5)CC3)cc3ncn(C4CC4)c23)ccc1C [Example 154]
25 | 100 pM | CC(C)n1cnc2cc(-c3cnc4c(c3)N([C@H]3C[C@@](C)(N5CCCCC5)C3)C(=O)C4(C)C)nc(Nc3cc(C(=O)NCC(F)F)c(Cl)c(F)c3F)c21 [Example 250, 2-chloro-N-(2,2-difluoroethyl)-5-((6-(3,3-dimethyl-1-((1s,3s)-3-methyl-3-(piperidin-1-yl)cyclobutyl)-2-oxo-2,3-dihydro-1H-pyrrolo[3,2-b]pyridin-6-yl)-3-isopropyl-3H-imidazo[4,5-c]pyridin-4-yl)amino)-3,4-difluorobenzamide]
26 | 100 pM | CC(C)n1cnc2cc(-c3ccc4c(c3)N([C@H]3C[C@@](C)(N5CCCCC5)C3)C(=O)C4(C)C)nc(Nc3cc(C(=O)NC4(C(F)F)CC4)c(Cl)c(F)c3F)c21 [Example 241, 2-Chloro-N-(1-(difluoromethyl)cyclopropyl)-5-((6-(3,3-dimethyl-1-((1s,3s)-3-methyl-3-(piperidin-1-yl)cyclobutyl)-2-oxoindolin-6-yl)-3-isopropyl-3H-imidazo[4,5-c]pyridin-4-yl)amino)-3,4-difluorobenzamide]
27 | 200 pM | CNC(=O)c1cc(Nc2nc(-c3ccc4c(c3)N([C@H]3C[C@@H](N5CCCCC5)C3)C(=O)C43CCN(C(=O)C45CC(O)(C4)C5)CC3)cc3ncn(C(C)C)c23)ccc1C [Example 148]
28 | 70 pM | Cc1c(C(=O)NC2CC2)cc(Nc2nc(-c3cnc4c(c3)N([C@H]3C[C@@](C)(N5CCCCC5)C3)C(=O)C4(C)C)cc3ncn(C(C)C)c23)c(F)c1F [Example 221, N-Cyclopropyl-5-((6-(3,3-dimethyl-1-((1s,3s)-3-methyl-3-(piperidin-1-yl)cyclobutyl)-2-oxo-2,3-dihydro-1H-pyrrolo[3,2-b]pyridin-6-yl)-3-isopropyl-3H-imidazo[4,5-c]pyridin-4-yl)amino)-3,4-difluoro-2-methylbenzamide]
